{"source": "patent US20240057598A1", "about": "“USE OF 2-AMINO-3-METHYLHEXANOIC ACID AS PLANT IMMUNITY INDUCER” (NANJING AGRICULTURAL UNIVERSITY, priority 2020, published 2024)", "key": {"tomato": {"tested_on": "tomato", "assay": "Induced resistance of tomato to high temperature stress", "format": "in vivo", "procedure": "(§1) 2-amino-3-methylhexanoic acid was dissolved in distilled water and diluted with distilled water into solutions of 1 nM, 10 nM, 100 nM and 1,000 nM by gradient. A blank control was additionally set, and 0.02% Tween 20 was added as a surfactant. 4 groups of repetitions were set for each concentration, and a normal temperature blank control was set at the same time. Ryegrass seeds were weighed according to 0.8 g per pot, sowed in a pot with a diameter of 8.5 cm, and planted in a greenhouse at a temperature of 25° C., a humidity of 60%-70%, and a light intensity of 200 μmolm^−2s^−1 (12 h light/12 h dark). On the 8th day of the seedling stage, the ryegrass was sprayed with the 2-amino-3-methylhexanoic acid solutions on the leaves twice in 24 h. 24 h after the second treatment, the plants were transferred to a light incubator at a temperature of 45° C. for conducting high temperature stress treatment for 12 h, and then the plants were taken out and transferred to a greenhouse at a temperature of 25° C. for 7 days of recovery. The injured conditions of the plants were observed and counted, and the heat injury grade was calculated. […] After the counting, the fresh weight of the aboveground part of the plant was weighed, and then the aboveground part was baked in an 85° C. oven for 48 h to determine the dry weight.\nTomato seeds were sowed in small pots, and three tomato seedlings with the same growth condition were transplanted into one pot after emergence. The planting method and conditions were the same as above. When the tomato grew for 18 days in the seedling stage, the experiment was conducted. High temperature stress was conducted at 42° C. for 9 h, and the treatment method and subsequent statistical indexes were the same as those of the above."}, "E. coli B": {"tested_on": "E. coli B", "settings": "cited from earlier work"}, "S. marcescens": {"tested_on": "S. marcescens", "settings": "cited from earlier work"}, "A. ureafaciens": {"tested_on": "A. ureafaciens", "settings": "cited from earlier work"}, "Bacillus subtilis": {"tested_on": "Bacillus subtilis", "settings": "cited from earlier work"}, "P. fluorescens": {"tested_on": "P. fluorescens", "settings": "cited from earlier work"}, "ryegrass": {"tested_on": "ryegrass", "assay": "Induced resistance of ryegrass to high temperature stress", "format": "in vivo", "settings": "for Dry weight of overground part / Fresh weight of overground part / Heat injury index: 45° C. 12 h, 7 days recovery", "procedure": "as §1"}, "[1]": {"settings": "10 nM, 42° C. 9 h, 7 days recovery"}, "[2]": {"settings": "100 nM, 42° C. 9 h, 7 days recovery"}, "[3]": {"settings": "1,000 nM, 42° C. 9 h, 7 days recovery"}, "[4]": {"settings": "100 nM, compared with untreated control group"}}, "data": [{"molecule": "CCCC(C)C(N)C(=O)O", "note": "(stereo not shown) [2-amino-3-methylhexanoic acid]", "values": [{"measurement": "Optimum concentration inducing resistance to high temperature stress", "setting": "tomato", "result": "1,000 nM"}, {"measurement": "Dry weight of overground part", "setting": "tomato; [1]", "result": "0.05 ± 0.01", "unit": "b g"}, {"measurement": "Heat injury index", "setting": "tomato; [1]", "result": 95}, {"measurement": "Dry weight of overground part", "setting": "tomato; [2]", "result": "0.06 ± 0.02", "unit": "g·h"}, {"measurement": "Fresh weight of overground part", "setting": "tomato; [2]", "result": "0.61 ± 0.16", "unit": "abc g"}, {"measurement": "Heat injury index", "setting": "tomato; [2]", "result": 90}, {"measurement": "Dry weight of overground part", "setting": "tomato; [3]", "result": "0.08 ± 0.003", "unit": "ab g"}, {"measurement": "Heat injury index", "setting": "tomato; [3]", "result": 60}, {"measurement": "Inhibitory effect", "setting": "E. coli B", "result": "slight inhibitory effect"}, {"measurement": "Inhibitory effect", "setting": "S. marcescens", "result": "no inhibitory effect"}, {"measurement": "Inhibitory effect", "setting": "A. ureafaciens", "result": "slight inhibitory effect"}, {"measurement": "Inhibitory effect", "setting": "Bacillus subtilis", "result": "obvious inhibitory effect"}, {"measurement": "Inhibitory effect", "setting": "P. fluorescens", "result": "no inhibitory effect"}, {"measurement": "Optimal use concentration to alleviate high temperature stress", "setting": "ryegrass", "result": 100, "unit": "nM"}, {"measurement": "Dry weight of overground part", "setting": "ryegrass; 1 nM", "result": "0.4 ± 0.01", "unit": "bc g"}, {"measurement": "Fresh weight of overground part", "setting": "ryegrass; 1 nM", "result": "1.96 ± 0.19", "unit": "b g"}, {"measurement": "Heat injury index", "setting": "ryegrass; 1 nM", "result": 70, "unit": "%"}, {"measurement": "Dry weight of overground part", "setting": "ryegrass; 10 nM", "result": "0.46 ± 0.04", "unit": "ab g"}, {"measurement": "Fresh weight of overground part", "setting": "ryegrass; 10 nM", "result": "2.14 ± 0.095", "unit": "g"}, {"measurement": "Heat injury index", "setting": "ryegrass; 10 nM", "result": 60, "unit": "%"}, {"measurement": "Dry weight of overground part", "setting": "ryegrass; 100 nM", "result": "0.44 ± 0.02", "unit": "nb g"}, {"measurement": "Fresh weight of overground part", "setting": "ryegrass; 100 nM", "result": "2.60 ± 0.02", "unit": "b g"}, {"measurement": "Heat injury index", "setting": "ryegrass; 100 nM", "result": 30, "unit": "%"}, {"measurement": "Increase of dry weight of aboveground part", "setting": "ryegrass; [4]", "result": 25, "unit": "%"}, {"measurement": "Increase of fresh weight of aboveground part", "setting": "ryegrass; [4]", "result": 162, "unit": "%"}, {"measurement": "Dry weight of overground part", "setting": "ryegrass; 1,000 nM", "result": "0.45 ± 0.01", "unit": "ab g"}, {"measurement": "Fresh weight of overground part", "setting": "ryegrass; 1,000 nM", "result": "2.42 ± 0.15", "unit": "b g"}, {"measurement": "Heat injury index", "setting": "ryegrass; 1,000 nM", "result": 30, "unit": "%"}]}]}
